The source of these data is ChEMBL document CHEMBL5614458, “Benign-by-Design SAHA Analogues for Human and Animal Vector-Borne Parasitic Diseases” (ACS Med Chem Lett, 2024).

As a reminder, the EC50 is the concentration at which the effect is half-maximal. As a reminder, the IC50 is the concentration at which inhibition is half-maximal. Low values mean greater potency in that assay, high ones weaker potency in that assay.

Activity calls are given as the source filed them. The rule behind the calls is not given here. Where only a bound is given, the exact number is not on record here.

Series [1] concerns Trypanosoma brucei. Kind of series: microbe, parasite or virus in culture. In kind it is functional, organism-based. Particulars: Lister 427WT, 48 h.
Description: Antiparasitic activity against Trypanosoma brucei Lister 427WT bloodstream trypomastigotes incubated for 48 hrs by Resazurin assay
Series [2] concerns Leishmania mexicana. In words: Antiparasitic activity against Leishmania mexicana Cas9 promastigotes incubated for 48 hrs by Resazurin assay. To be noted: Cas9, 48 h. In kind it is functional, organism-based. (Alamar Blue is a resazurin reagent that responds to reducing activity.)
Series [3] relates to HepG2. Kind of series: Cytotoxicity against human HepG2 cells assessed as cell viability at 10 uM incubated for 24 hrs by MTT assay. Particulars: hepg2, 24 h. In kind it is toxicity, cell-based. In general terms: Tetrazolium dyes change colour on reduction, which living cells bring about.
Series [4] deals with IMR-32. Kind of series: Cytotoxicity against human IMR-32 cells assessed as cell viability at 10 uM incubated for 24 hrs by MTT assay. Particulars: imr-32, 24 h. In kind it is toxicity, cell-based.
A short description of series [5]: Cytotoxicity against mouse L929 cells incubated for 96 hrs by Alamar Blue assay. In kind it is toxicity, cell-based. To be noted: read-out: LC50.
Series [6] concerns Trypanosoma cruzi. Kind of series: Antiparasitic activity against Trypanosoma cruzi Tulahuen intracellular forms infected in mouse L929 cells incubated for 96 hrs by spectrophotometery. In kind it is functional, organism-based. Particulars: L929, 96 h.
The target in series [7] is T1, Histone deacetylase (Homo sapiens) (UniProt Q13547+O15379+Q9UBN7+Q92769+Q9UQL6+Q8WUI4+Q9BY41+Q96DB2+P56524+Q9UKV0+Q969S8). In words: Inhibition of HDAC in human MET5A cells transfected with Rluc-Brd/YFP-fused histone H3 at 0.1 to 10 uM by BRET assay. In kind it is cell-based. To be noted: dose 0.1-10 µM. Background: Bioluminescence resonance energy transfer reports proximity on the nanometre scale.

Series [8] deals with Leishmania amazonensis. In words: Antiparasitic activity against Leishmania amazonensis MHOM/BR/77/LTB0016 amastigotes infected in BALB/c mouse incubated for 48 hrs by Alamar Blue assay. Particulars: MHOM/BR/77/LTB0016, 48 h. In kind it is functional, organism-based.
The target in series [9] is T1, Histone deacetylase (Homo sapiens). In words: Inhibition of HDAC in human MET5A cells transfected with Rluc-Brd/YFP-fused histone H3 by BRET assay. To be noted: dose 0.1-10 µM. In kind it is cell-based.
Series [10] relates to HepG2. In words: Cytotoxicity against human HepG2 cells assessed as reduction in cell viability at 10 uM incubated for 24 hrs by MTT assay relative to control. In kind it is toxicity, cell-based. Particulars: hepg2, 24 h.
In series [11] the target is T2, Protein deacetylase HDAC6 (Homo sapiens, UniProt Q9UBN7).
T2 sequence (Q9UBN7 whole entry): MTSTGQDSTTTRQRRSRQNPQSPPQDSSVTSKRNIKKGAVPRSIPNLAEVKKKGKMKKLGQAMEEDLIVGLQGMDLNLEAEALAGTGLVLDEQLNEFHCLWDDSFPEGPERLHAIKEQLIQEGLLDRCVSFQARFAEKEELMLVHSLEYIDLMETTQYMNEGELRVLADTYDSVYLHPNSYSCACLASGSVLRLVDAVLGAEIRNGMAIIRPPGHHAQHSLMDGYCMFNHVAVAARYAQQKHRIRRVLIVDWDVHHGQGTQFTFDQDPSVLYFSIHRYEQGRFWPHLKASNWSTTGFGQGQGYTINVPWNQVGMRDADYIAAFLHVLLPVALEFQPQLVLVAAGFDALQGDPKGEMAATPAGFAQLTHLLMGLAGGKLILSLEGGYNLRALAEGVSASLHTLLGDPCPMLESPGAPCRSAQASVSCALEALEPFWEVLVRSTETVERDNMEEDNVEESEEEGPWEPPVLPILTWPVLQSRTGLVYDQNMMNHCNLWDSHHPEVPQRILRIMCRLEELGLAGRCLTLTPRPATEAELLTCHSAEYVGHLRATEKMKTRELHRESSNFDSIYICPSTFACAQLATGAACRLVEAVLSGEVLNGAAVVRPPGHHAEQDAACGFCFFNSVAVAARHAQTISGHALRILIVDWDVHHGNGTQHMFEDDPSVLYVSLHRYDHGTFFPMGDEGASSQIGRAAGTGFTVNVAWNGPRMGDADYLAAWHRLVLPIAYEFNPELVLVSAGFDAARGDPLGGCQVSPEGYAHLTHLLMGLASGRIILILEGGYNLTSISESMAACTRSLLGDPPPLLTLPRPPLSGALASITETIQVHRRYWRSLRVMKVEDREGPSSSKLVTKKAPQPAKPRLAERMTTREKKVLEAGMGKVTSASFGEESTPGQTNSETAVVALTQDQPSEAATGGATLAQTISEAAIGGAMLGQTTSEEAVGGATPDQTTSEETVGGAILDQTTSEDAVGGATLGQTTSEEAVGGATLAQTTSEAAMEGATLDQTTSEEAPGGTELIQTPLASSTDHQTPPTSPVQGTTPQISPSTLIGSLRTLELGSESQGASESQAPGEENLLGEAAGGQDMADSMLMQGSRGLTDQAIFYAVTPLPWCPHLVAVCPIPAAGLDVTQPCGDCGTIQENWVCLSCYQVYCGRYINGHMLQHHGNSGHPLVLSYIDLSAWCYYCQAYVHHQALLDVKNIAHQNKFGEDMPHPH
Kind of series: Inhibition of HDAC6 (unknown origin) using RHKK(Ac)AMC as substrate.

Take `N=C(N)c1ccc(OCCCCCOc2ccc(C(=N)N)cc2)cc1` [PENTAMIDINE]: the EC50 is 0.021 µM in [1] and 1.3 µM in series [2].

Take `COc1cccc(CCCCCCCCCCCC(=O)Nc2ccccc2N)c1`: the Activity result in series [3] and in [4] was “Non-Toxic” throughout. The CC50 at 96 h in series [5] was more than 200 µM. The figures for the EC50 in [1], in series [2] and in series [6] were 14.4 µM, more than 100 µM and more than 10 µM, respectively. In addition, the inhibition entry in series [7] is “inactive”.

As to `O=C(CCCCCCCCCCCc1cccc(OC(=O)c2ccccc2)c1)NO`, the Activity result in series [3] and in [4] was “Non-Toxic” in each case. Also, the CC50 at 96 h in series [5] is 79 µM. The EC50 in series [1] was 4.8 µM; in [2] it was 54 µM; in [8], more than 30 µM; in series [6], more than 10 µM. Also, the inhibition entry in series [7] is “inactive”.

For the compound `O=C(CCCCCCCCCCCc1cccc(OCc2ccccc2)c1)NO`, the Activity result in series [3] and in [4] was “Non-Toxic” each time. The CC50 at 96 h in [5] was determined as 90 µM. The EC50 is 4.8 µM in series [1], 69 µM in series [2], 14.5 µM in series [8] and more than 10 µM in series [6]. For the same compound, the inhibition result in series [9] is “Dose-Dependent Effect”.

For `O=C(Cn1ccnc1[N+](=O)[O-])NCc1ccccc1` [BENZNIDAZOLE], the CC50 at 96 h in series [5] was more than 200 µM. In series [6], this compound displayed an EC50 of 2.63 µM.

In the case of `COc1cccc(CCCCCCCCCCCC(=O)NO)c1`, the Activity result in series [4] was “Non-Toxic”; in series [10] it was 25%. The CC50 at 96 h in [5] stood at 157 µM. The EC50 in series [1] is 0.7 µM; in series [2], 104 µM; in [8], more than 30 µM; in series [6] it was more than 10 µM. Further, the inhibition result in series [7] was “inactive”.

As for `CCCCCCCCCCCCCCCCOP(=O)([O-])OCC[N+](C)(C)C` [MILTEFOSINE], in series [8], the EC50 is 1.38 µM.

As to `C[C@@H]1[C@H](O)[C@@H](C)/C=C/C=C/C=C/C=C/C=C/C=C/C=C/[C@H](O[C@@H]2O[C@H](C)[C@@H](O)[C@H](N)[C@@H]2O)C[C@@H]2O[C@](O)(C[C@@H](O)C[C@@H](O)[C@H](O)CC[C@@H](O)C[C@@H](O)CC(=O)O[C@H]1C)C[C@H](O)[C@H]2C(=O)O` [AMPHOTERICIN B], the EC50 in [2] stood at 0.15 µM.

On to `Nc1ccccc1NC(=O)CCCCCCCCCCCc1cccc(OC(=O)c2ccccc2)c1`, for which the Activity result in series [3] and in [4] was “Non-Toxic” each time. For the same compound, in series [5], the CC50 at 96 h is more than 200 µM. Further, the EC50 in [1] is 8.5 µM; in series [2] it was more than 100 µM; in [8] it was more than 30 µM; in series [6], more than 10 µM. For the same compound, the inhibition entry in series [7] is “inactive”.

As for `Nc1ccccc1NC(=O)CCCCCCCCCCCc1cccc(OCc2ccccc2)c1`, the Activity result in series [3] and in series [4] was “Non-Toxic” throughout. The CC50 at 96 h in series [5] was more than 200 µM. The EC50 was 78.3 µM in [1], more than 100 µM in series [2], more than 30 µM in series [8] and more than 10 µM in series [6]. Besides, the inhibition entry in series [7] is “inactive”.

With `Nc1ccccc1NC(=O)CCCCCCCCCCCc1cccc(O)c1`, the Activity result in series [3] and in series [4] was “Non-Toxic” in each case. Further, the CC50 at 96 h in series [5] was 145 µM. The EC50 was 7.2 µM in [1], 58 µM in [2], more than 30 µM in series [8] and more than 10 µM in [6]. Moreover, the inhibition result in [7] is “inactive”.

As to `O=C(CCCCCCCCCCCc1cccc(O)c1)NO`, the Activity result in series [3] and in series [4] was “Non-Toxic” in each case. The CC50 at 96 h in [5] is 151 µM. The EC50 in series [1] was 5.1 µM; in [2], approximately 100 µM; in series [8], more than 30 µM; in series [6] it was more than 10 µM. Also, the inhibition result in [9] is “Dose-Dependent Effect”. Moreover, it took 1.01 µM to reach half-maximal inhibition in [11] (IC50).
